Measured values taken from patent US9493501B2, “Methyltransferase inhibitors for treating cancer” (MEMORIAL SLOAN-KETTERING CANCER CENTER, priority 2011, dated 2016).
pIC50: −log10 of the molar value.

Tests used:
[1] = target: T1, PRMT3 (211-531) (Homo sapiens, UniProt O60678); assay: Filter-paper methylation assay, PRMT3; type: biochemical; settings: 100 nM enzyme, RGG peptide, 3 h
T1 construct: PRMT3 (211-531)

[2] = target: T2, G9a (913-1913) (Homo sapiens, UniProt Q96KQ7); assay: Filter-paper methylation assay, G9a; type: biochemical; settings: 20 nM enzyme, H3 (1-21 aa) peptide, 1 h
T2 construct: G9a (913-1913)
T2 sequence (Q96KQ7 913-1193): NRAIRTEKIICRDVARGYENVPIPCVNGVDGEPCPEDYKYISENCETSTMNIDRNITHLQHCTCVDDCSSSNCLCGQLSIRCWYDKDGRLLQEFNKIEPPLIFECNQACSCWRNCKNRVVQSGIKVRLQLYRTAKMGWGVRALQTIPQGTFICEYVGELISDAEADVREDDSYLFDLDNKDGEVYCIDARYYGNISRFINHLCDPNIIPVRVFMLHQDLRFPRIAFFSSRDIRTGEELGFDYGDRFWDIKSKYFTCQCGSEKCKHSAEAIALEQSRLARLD

[3] = target: T3, GLP1 (951-1235) (Homo sapiens, UniProt Q9H9B1); assay: biochemical; settings: 10 nM enzyme, H3 (1-21 aa) peptide, 1 h
T3 sequence (Q9H9B1 982-1266 limits assumed): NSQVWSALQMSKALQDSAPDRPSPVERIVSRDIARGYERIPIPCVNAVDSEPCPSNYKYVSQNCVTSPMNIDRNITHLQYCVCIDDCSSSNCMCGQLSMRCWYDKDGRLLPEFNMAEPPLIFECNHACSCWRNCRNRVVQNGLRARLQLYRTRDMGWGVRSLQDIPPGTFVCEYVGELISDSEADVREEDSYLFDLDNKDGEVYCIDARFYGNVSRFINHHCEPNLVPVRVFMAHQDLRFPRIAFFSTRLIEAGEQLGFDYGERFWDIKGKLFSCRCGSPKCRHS

[4] = target: T4, SET7/9 Full-length (Homo sapiens, UniProt Q8WTS6); assay: Filter-paper methylation assay, SET7/9; type: biochemical; settings: 150 nM enzyme, H3 (1-21 aa) peptide, 3 h
T4 construct: SET7/9 Full-length
T4 sequence (Q8WTS6 1-366): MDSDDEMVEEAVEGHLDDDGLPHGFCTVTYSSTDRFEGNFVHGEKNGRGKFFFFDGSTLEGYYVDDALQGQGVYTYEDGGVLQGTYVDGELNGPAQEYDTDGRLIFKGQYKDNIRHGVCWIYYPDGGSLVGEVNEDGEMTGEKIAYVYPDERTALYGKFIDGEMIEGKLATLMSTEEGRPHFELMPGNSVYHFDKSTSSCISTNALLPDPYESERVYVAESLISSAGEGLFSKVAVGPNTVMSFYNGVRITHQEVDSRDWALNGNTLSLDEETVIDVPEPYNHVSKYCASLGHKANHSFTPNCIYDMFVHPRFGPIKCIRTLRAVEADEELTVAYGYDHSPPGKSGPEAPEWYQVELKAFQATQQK

[5] = target: T5, SET8 (191-352) (Homo sapiens, UniProt Q9NQR1); assay: Filter-paper methylation assay, SET8; type: biochemical; settings: 1000 nM enzyme, H4 (10-30 aa) peptide, 8 h
T5 construct: SET8 (191-352)
T5 sequence (Q9NQR1 191-352 isoform Q9NQR1-2): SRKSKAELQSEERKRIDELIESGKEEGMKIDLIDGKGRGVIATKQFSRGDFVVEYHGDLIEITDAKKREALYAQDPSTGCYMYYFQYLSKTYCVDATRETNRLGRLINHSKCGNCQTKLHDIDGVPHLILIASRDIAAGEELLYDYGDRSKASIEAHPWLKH

[6] = system: histone 3 lysine 36 tri-methyl; assay: Cellular assay, histone methylation in HEK-293T cells; type: cell-based; settings: "in vivo", up to 100 μM, 24 h, H3K36 tri-methyl blot
[7] = target: T6, SETD2 (1347-1711) (Homo sapiens, UniProt Q9BYW2); assay: Filter-paper methylation assay, SETD2; type: biochemical; settings: 250 nM enzyme, H3 (20-50 aa) peptide, 4 h
T6 construct: SETD2 (1347-1711)
T6 sequence (Q9BYW2 1347-1711): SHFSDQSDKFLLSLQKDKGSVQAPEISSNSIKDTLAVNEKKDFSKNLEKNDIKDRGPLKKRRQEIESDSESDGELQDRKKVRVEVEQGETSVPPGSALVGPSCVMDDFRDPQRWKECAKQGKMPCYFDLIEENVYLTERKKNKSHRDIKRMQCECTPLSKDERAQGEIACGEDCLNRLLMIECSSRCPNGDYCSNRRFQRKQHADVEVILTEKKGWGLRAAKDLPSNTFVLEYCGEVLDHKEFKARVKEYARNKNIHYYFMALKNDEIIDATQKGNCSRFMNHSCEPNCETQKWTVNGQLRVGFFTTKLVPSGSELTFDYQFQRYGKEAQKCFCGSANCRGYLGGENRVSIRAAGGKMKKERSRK

[8] = target: T7, PRMT1 (10-352) (Homo sapiens, UniProt Q99873); assay: Filter-paper methylation assay, PRMT1; type: biochemical; settings: 100 nM enzyme, RGG peptide, 1.5 h
T7 construct: PRMT1 (10-352)
T7 sequence (Q99873 10-352 isoform Q99873-3, species assumed): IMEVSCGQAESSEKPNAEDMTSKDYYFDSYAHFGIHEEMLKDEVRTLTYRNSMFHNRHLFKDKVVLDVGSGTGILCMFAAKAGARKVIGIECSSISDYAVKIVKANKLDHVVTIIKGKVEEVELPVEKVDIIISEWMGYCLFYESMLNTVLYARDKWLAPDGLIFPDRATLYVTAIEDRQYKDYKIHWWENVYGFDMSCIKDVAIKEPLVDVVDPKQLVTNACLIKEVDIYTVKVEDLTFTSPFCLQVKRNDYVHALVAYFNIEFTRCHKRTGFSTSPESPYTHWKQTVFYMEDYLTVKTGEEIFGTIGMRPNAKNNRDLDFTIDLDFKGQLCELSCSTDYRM

[9] = target: T8, SUV39H2 (112-410) (Homo sapiens, UniProt Q9H5I1); assay: Filter-paper methylation assay, SUV39H2; type: biochemical; settings: 5 nM enzyme, H3 (1-21 aa) peptide, 4 h
T8 construct: SUV39H2 (112-410)
T8 sequence (Q9H5I1 112-410): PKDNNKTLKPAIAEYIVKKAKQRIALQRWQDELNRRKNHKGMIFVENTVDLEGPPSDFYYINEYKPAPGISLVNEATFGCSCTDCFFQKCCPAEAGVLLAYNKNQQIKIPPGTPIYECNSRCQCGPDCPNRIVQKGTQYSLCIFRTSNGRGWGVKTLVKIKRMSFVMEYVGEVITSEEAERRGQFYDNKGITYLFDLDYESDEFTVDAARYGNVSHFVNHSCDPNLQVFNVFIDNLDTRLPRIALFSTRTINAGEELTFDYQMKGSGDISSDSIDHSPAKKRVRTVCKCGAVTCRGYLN

[10] = target: T9, SMYD2 Full-length (Homo sapiens, UniProt Q9NRG4); assay: Filter-paper methylation assay, SMYD2; type: biochemical; settings: 50 nM enzyme, p53 (360-393 aa) peptide, 10 h; read-out: IC50 SMYD2-FL
T9 construct: SMYD2 Full-length
T9 sequence (Q9NRG4 whole entry, the tested form may be a part): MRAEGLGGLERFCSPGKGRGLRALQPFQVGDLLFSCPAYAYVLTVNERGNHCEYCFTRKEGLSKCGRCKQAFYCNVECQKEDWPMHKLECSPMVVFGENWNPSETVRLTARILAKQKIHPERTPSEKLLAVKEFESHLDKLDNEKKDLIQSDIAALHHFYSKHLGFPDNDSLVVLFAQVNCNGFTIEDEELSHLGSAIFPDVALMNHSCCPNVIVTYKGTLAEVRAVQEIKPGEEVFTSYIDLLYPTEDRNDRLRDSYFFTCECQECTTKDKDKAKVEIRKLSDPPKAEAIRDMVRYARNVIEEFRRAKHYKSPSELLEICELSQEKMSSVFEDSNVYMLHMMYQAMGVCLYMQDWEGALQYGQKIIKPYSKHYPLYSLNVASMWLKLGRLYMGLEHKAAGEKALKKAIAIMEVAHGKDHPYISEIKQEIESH

[11] = target: T10, CARM1 (19-608) (Homo sapiens, UniProt Q86X55); assay: Filter-paper methylation assay, CARM1; type: biochemical; settings: 300 nM enzyme, H3 (1-40 aa) peptide, 7 h; read-out: IC50 CARM1
T10 construct: CARM1 (19-608)
T10 sequence (Q86X55 19-608): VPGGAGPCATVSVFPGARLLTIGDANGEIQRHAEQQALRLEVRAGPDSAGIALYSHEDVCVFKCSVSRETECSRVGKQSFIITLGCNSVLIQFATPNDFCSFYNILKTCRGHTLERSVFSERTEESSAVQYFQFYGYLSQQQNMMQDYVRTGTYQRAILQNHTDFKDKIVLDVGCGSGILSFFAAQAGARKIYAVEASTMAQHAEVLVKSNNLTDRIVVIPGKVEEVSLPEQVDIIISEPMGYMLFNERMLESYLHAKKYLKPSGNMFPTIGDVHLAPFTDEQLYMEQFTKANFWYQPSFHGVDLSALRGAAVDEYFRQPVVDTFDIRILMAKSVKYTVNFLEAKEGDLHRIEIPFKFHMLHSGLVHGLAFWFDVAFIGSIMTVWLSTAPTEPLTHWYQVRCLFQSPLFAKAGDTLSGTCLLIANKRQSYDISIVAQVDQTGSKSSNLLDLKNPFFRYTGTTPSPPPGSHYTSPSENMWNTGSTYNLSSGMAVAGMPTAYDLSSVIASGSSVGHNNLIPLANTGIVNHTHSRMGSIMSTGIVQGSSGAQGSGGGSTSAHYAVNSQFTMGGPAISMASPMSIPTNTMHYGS

T1 sequence (O60678 211-531): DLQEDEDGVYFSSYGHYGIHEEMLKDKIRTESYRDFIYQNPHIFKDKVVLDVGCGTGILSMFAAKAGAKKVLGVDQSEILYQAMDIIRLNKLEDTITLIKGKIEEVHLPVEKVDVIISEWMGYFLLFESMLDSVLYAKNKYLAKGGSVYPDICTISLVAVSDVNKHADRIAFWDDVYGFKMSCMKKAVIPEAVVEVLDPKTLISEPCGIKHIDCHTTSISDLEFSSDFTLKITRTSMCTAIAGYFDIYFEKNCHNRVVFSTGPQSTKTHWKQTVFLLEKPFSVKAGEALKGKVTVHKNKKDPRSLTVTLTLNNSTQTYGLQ

## CCCN[C@@H](CC[C@H](N)C(=O)O)C[C@H]1O[C@@H](n2cnc3c(N)ncnc32)[C@H](O)[C@@H]1O [Compound 102]
[1]
  pIC50: ~4.00
[2]
  pIC50: < 4.00
[3]
  pIC50: < 4.00
[4]
  pIC50: 5.66
[5]
  pIC50: < 4.00
[6]
  inhibiting histone methyltransferase: showed activity in inhibiting histone methyltransferase
[7]
  pIC50: 6.10
[8]
  pIC50: 5.02
[9]
  pIC50: 5.01
[10]
  pIC50: 6.30
[11]
  pIC50: 5.52
